Measurements taken from US7897788B2, “Indol-1-yl-acetic acid derivatives” (Actelion Pharmaceutical Ltd., priority 2004, dated 2011).

Tests used:
hCRTH2 receptor [1] = molecular target: T1, hCRTH2 receptor (Homo sapiens, UniProt Q9Y5Y4); experiment: CRTH2 membranes radioligand binding assay ({3H}-PGD2), Example B-1; conditions: {3H}-PGD2 radioligand binding, read-out: CRTH2 binding IC50 (nM) (method B1 above)
T1 construct: expressed in transfected cells
T1 sequence (Q9Y5Y4 1-395): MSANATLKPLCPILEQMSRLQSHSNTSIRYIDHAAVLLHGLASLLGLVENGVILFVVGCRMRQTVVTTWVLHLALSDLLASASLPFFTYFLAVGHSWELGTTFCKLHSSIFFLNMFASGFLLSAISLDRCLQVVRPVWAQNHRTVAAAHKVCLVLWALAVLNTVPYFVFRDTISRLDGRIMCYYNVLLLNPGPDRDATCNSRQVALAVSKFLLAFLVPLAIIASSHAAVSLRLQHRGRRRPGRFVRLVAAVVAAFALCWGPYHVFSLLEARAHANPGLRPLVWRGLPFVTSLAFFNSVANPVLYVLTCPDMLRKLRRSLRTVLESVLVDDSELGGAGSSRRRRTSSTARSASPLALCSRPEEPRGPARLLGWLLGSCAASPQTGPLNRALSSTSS
Protocol: The ability of the compounds of formula I, IC1, IC2 or IP to bind to the CRTH2 receptor may be measured by methods similar to those described in Sawyer N. et al., Br. J. Pharmacol. (2002), 137, 1163-1172 and by the method described below in Example B-1.
Preparation of the membranes and radioligand binding assays are performed according to known procedures, e.g. Sawyer N. et al. (Br. J. Pharmacol., 2002, 137, 1163-1172). A clonal HEK 293 cell line, expressing high level of recombinant hCRTH2 receptor, is selected for the preparation of membranes. Cells are detached from culture plates in 5 ml buffer A per plate (5 mM Tris, 1 mM MgCl2x6H2O, 0.1 mM PMSF, 0.1 mM phenanthroline) using a police rubber and transferred into centrifugation tubes and frozen at −80° C. After thawing, the cells are centrifuged at 500 g for 5 min and then resuspended in buffer A. Cells are then fragmented by homogenization with a Polytron homogenizer for 30 s. The membrane fragments are centrifuged at 3000 g for 40 min and resuspended in membranes in buffer B (50 mM Tris, 25 mM MgCl2, 250 mM saccharose, pH 7.4) and aliquots are stored frozen.
Binding assay is performed in a total volume of 250 μl. In each well, 75 μl buffer C (50 mM Tris, 100 mM NaCl, 1 mM EDTA, 0.1% BSA (protease free), 0.01% NaN3, pH 7.4) was mixed with 50 μl {^3H}-PGD2 (at 2.5 nM (220.000 dpm per well) from Amersham, TRK734), 100 μl CRTH2 membranes to give 80 μg per well and 25 μl of test compound in buffer C containing 1% DMSO. For unspecific binding, PGD2 is added to the reaction mixture at 1 μM final concentration. This binding assay mix is incubated at rt for 90 min and then filtered through a GF/C filter plate. The filter is washed three times with ice cold binding buffer. Then, 40 μl per well Microscint-40 (Packard) are added and the bound radioactivity is quantified by means of Topcount (Packard).

hCRTH2 receptor [2] = molecular target: T1, hCRTH2 receptor; experiment: Intracellular calcium mobilization assay (FLIPR), Example B-2; format: cell-based; conditions: HEK-293 cells expressing hCRTH2; 10 nM prostaglandin D2 as agonist; read-out: CRTH2 FLIPR IC50 (nM) (method B2 above)
Protocol: A functional assay with cells expressing the human CRTH2 receptor may be used to detect changes in the levels of intracellular calcium concentration following compound treatment. After addition of the compound the cells are challenged with PGD2. In a Fluorescent Imaging Plate Reader (FLIPR™, Molecular Devices, Sunnyvale, Calif.) fluorescence emission is recorded during both additions, emission peak values above base level after PGD2 addition were exported, normalized to low controls (no PGD2) and high controls (no active compound). The relative values of the remaining activity were used to determine IC50 values by curve fitting the data to a single site to a four-parameter logistic sigmoid dose response curve of the equation (A+((B−A)/(1+((C/x)^D)))).
The ability of the compounds to antagonize PGD2 induced change of intracellular calcium levels via CRTH2 activation may be measured by methods known of one skilled in the art or by the method described below in Example B-2.
Cells (HEK-293), stably expressing the hCRTH2 receptor under the control of the cytomegalovirus promotor from a single insertion of the expression vector pcDNA5 (Invitrogen), are grown to confluency in DMEM (low glucose, Gibco) medium supplemented with 10% fetal calf serum (both Bioconcept, Switzerland) under standard mammalian cell culture conditions (37° C. in a humidified atmosphere of 5% CO2). Cells are detached from culture dishes using a dissociation buffer (0.02% EDTA in PBS, Gibco) for 1 min, and collected by centrifugation at 200 g at rt for 5 min in assay buffer (equal parts of Hank's BSS (HBSS, Bioconcept) and DMEM (low glucose, without phenol red, Gibco)). After incubation for 45 min (37° C. and 5% CO2) in the presence of 1 μM Fluo-4 and 0.04% Pluronic F-127 (both Molecular Probes), 20 mM HEPES (Gibco) in assay buffer, the cells are washed with and resuspended in assay buffer, then seeded onto 384-well FLIPR assay plates (Greiner) at 50,000 cells in 66 μl per well), and sedimented by centrifugation.
Stock solutions of test compounds are made up at a concentration of 10 mM in DMSO, and serially diluted in assay buffer to concentrations required for inhibition dose response curves. Prostaglandin D2 (Biomol, Plymouth Meeting, Pa.) is used as an agonist.
A FLIPR384 instrument (Molecular Devices) is operated according to the manufacturer's standard instructions, adding 4 μl of test compound dissolved at 10 mM in DMSO and diluted prior to the experiment in assay buffer to obtain the desired final concentration. 10 μl of 80 nM prostaglandin D2 (Biomol, Plymouth Meeting, Pa.) in assay buffer, supplemented with 0.8% bovine serum albumin (fatty acid content<0.02%, Sigma), is then added to obtain a final concentration of 10 nM and 0.1%, respectively. Changes in fluorescence are monitored before and after the addition of test compounds at λex=488 nm and λem=540 nm. Emission peak values above base level after prostaglandin D2 addition are exported after base line subtraction. Values are normalized to high-level control (no test compound added) after subtraction of base line value (no prostaglandin D2 added). The program XLlfit 3.0 (IDBS) is used to fit the data to a single site dose response curve of the equation (A+((B−A)/(1+((C/x)^D)))) and to calculate the IC50 values.

| SMILES | IC50 (hCRTH2 receptor [1]) [nM] | IC50 (hCRTH2 receptor [2]) [nM] |
| --- | --- | --- |
| Cc1ccc(NC(=O)/C(C#N)=C/c2cn(CC(=O)O)c3ccccc23)cc1Br [Example 70, {3-[(E)-2-(3-bromo-4-methyl-phenylcarbamoyl)-2-cyano-vinyl]-indol-1-yl}-acetic acid] | 76 | 58 |
| COc1ccc(Cl)cc1NC(=O)/C(C#N)=C/c1cn(CC(=O)O)c2ccccc12 [Example 64, {3-[(E)-2-(5-chloro-2-methoxy-phenylcarbamoyl)-2-cyano-vinyl]-indol-1-yl}-acetic acid] | 40 | 61 |
| CN(C(=O)/C(C#N)=C/c1cn(CC(=O)O)c2ccccc12)c1cccc(Cl)c1 [Example 101, (3-{(E)-2-[(3-chloro-phenyl)-methyl-carbamoyl]-2-cyano-vinyl}-indol-1-yl)-acetic acid] | 15 | 182 |
| N#C/C(=C\c1cn(CC(=O)O)c2ccccc12)C(=O)N(CC(=O)O)c1ccccc1 [Example 99, {3-[(E)-2-(carboxymethyl-phenyl-carbamoyl)-2-cyano-vinyl]-indol-1-yl}-acetic acid] | 16 | 159 |
| N#C/C(=C\c1cn(CC(=O)O)c2ccccc12)C(=O)N(Cc1ccccc1)c1ccccc1 [Example 12, {3-[(E)-2-(benzyl-phenyl-carbamoyl)-2-cyano-vinyl]-indol-1-yl}-acetic acid] | 29 | 90 |
| N#C/C(=C\c1cn(CC(=O)O)c2ccccc12)C(=O)N1c2ccccc2Sc2ccc(Cl)cc21 [Example 113, {3-[(E)-3-(2-chloro-phenothiazin-10-yl)-2-cyano-3-oxo-propenyl]-indol-1-yl}-acetic acid] | 9 | 66 |
| N#C/C(=C\c1cn(CC(=O)O)c2ccccc12)C(=O)Nc1ccccc1Cc1ccccc1 [Example 29, {3-[(E)-2-(2-benzyl-phenylcarbamoyl)-2-cyano-vinyl]-indol-1-yl}-acetic acid] | 42 | 151 |

Other lines, results leading:

| IC50 (hCRTH2 receptor [1]) [nM] | IC50 (hCRTH2 receptor [2]) [nM] | SMILES |
| --- | --- | --- |
| 35 | 146 | N#C/C(=C\c1cn(CC(=O)O)c2ccccc12)C(=O)Nc1ccccc1Oc1ccc(Cl)cc1Cl [Example 49, (3-{(E)-2-cyano-2-[2-(2,4-dichloro-phenoxy)-phenylcarbamoyl]-vinyl}-indol-1-yl)-acetic acid] |
| 49 | 253 | Cc1ccc2c(/C=C(\C#N)C(=O)N3Cc4ccccc4Cc4ccccc43)cn(CC(=O)O)c2c1 [Example 149, {3-[(E)-2-cyano-3-(6,11-dihydro-dibenzo[b,e]azepin-5-yl)-3-oxo-propenyl]-6-methyl-indol-1-yl}-acetic acid] |
| 11 | 61 | CN(C(=O)/C(C#N)=C/c1cn(CC(=O)O)c2ccccc12)c1ccccc1 [Example 46, {3-[(E)-2-cyano-2-(methyl-phenyl-carbamoyl)-vinyl]-indol-1-yl}-acetic acid] |
| 10 | 181 | CC(=O)c1ccc(N(C)C(=O)/C(C#N)=C/c2cn(CC(=O)O)c3ccccc23)cc1 [Example 94, (3-{(E)-2-[(4-acetyl-phenyl)-methyl-carbamoyl]-2-cyano-vinyl}-indol-1-yl)-acetic acid] |
| 17 | 47 | CN(C(=O)/C(C#N)=C/c1cn(CC(=O)O)c2ccc(F)cc12)c1ccccc1C(F)(F)F [Example 141, (3-{(E)-2-cyano-2-[methyl-(2-trifluoromethyl-phenyl)-carbamoyl]-vinyl}-5-fluoro-indol-1-yl)-acetic acid] |
| 18 | 98 | N#C/C(=C\c1cn(CC(=O)O)c2ccccc12)C(=O)Nc1cccc(C(=O)c2ccccc2)c1 [Example 54, {3-[(E)-2-(3-benzoyl-phenylcarbamoyl)-2-cyano-vinyl]-indol-1-yl}-acetic acid] |
| 7 | 48 | COc1ccc(N(C)C(=O)/C(C#N)=C/c2cn(CC(=O)O)c3ccccc23)cc1 [Example 45, (3-{(E)-2-cyano-2-[(4-methoxy-phenyl)-methyl-carbamoyl]-vinyl}-indol-1-yl)-acetic acid] |
| 12 | 57 | N#C/C(=C\c1cn(CC(=O)O)c2ccccc12)C(=O)N1c2ccccc2C=Cc2ccccc21 [Example 87, sodium [3-((E)-2-cyano-3-dibenzo[b,f]azepin-5-yl-3-oxo-propenyl)-indol-1-yl]-acetate] |
| 9 | 54 | N#C/C(=C\c1cn(CC(=O)O)c2ccccc12)C(=O)N1CCCc2ccccc21 [Example 47, {3-[(E)-2-cyano-3-(3,4-dihydro-2H-quinolin-1-yl)-3-oxo-propenyl]-indol-1-yl}-acetic acid] |
| 6 | 114 | N#C/C(=C\c1cn(CC(=O)O)c2ccccc12)C(=O)N1Cc2ccccc2Cc2ccccc21 [Example 89, {3-[(E)-2-cyano-3-(6,11-dihydro-dibenzo[b,e]azepin-5-yl)-3-oxo-propenyl]-indol-1-yl}-acetic acid] |
